Data published in the supplement of paper PMC10307832.

Legend:
Experiment in all cases: relative viability (nuclei count vs DMSO), 5 days (fraction); higher = more cells survive
GSK-J4 + Phenformin = compound: CCOC(=O)CCNc1cc(N2CCc3ccccc3CC2)nc(-c2ccccn2)n1 [GSK-J4] + N=C(N)NC(=N)NCCc1ccccc1 [Phenformin] (partner 250 µM)
Summary of the method: (§1)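 Values are medians from duplicate plates. Each reflects relative viability, defined as the nuclei count of treated wells over that of vehicle wells. Lung cancer cell lines in 1536-well plates were pin-tool dosed one day after seeding with one drug alone or with a fixed anchor-drug dose plus five library-drug doses (not always all listed) in √10 steps, then fixed, stained and imaged at 4× after 5 days.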

AZ3146 + Trametinib = compound: CN1CCC(CC1)OC2=CC(=C(C=C2)NC3=NC=C4C(=N3)N(C(=O)N4C)C5CCCC5)OC [AZ3146] + CC(=O)Nc1cccc(-n2c(=O)n(C3CC3)c(=O)c3c(Nc4ccc(I)cc4F)n(C)c(=O)c(C)c32)c1 [Trametinib] (partner 0.02 µM)
Summary of the method: as §1

AZ3146 + Pictilisib = compound: CN1CCC(CC1)OC2=CC(=C(C=C2)NC3=NC=C4C(=N3)N(C(=O)N4C)C5CCCC5)OC [AZ3146] + CS(=O)(=O)N1CCN(Cc2cc3nc(-c4cccc5[nH]ncc45)nc(N4CCOCC4)c3s2)CC1 [Pictilisib] (partner 1 µM)
Summary of the method: as §1

AZ3146 + Vorinostat = compound: CN1CCC(CC1)OC2=CC(=C(C=C2)NC3=NC=C4C(=N3)N(C(=O)N4C)C5CCCC5)OC [AZ3146] + O=C(CCCCCCC(=O)Nc1ccccc1)NO [Vorinostat] (partner 1 µM)
Summary of the method: as §1

| Cell Line | relative viability (GSK-J4 + Phenformin; first compound 0.5 µM) | relative viability (GSK-J4 + Phenformin; first compound 1.581 µM) | relative viability (GSK-J4 + Phenformin; first compound 15.81 µM) | relative viability (GSK-J4 + Phenformin; first compound 50 µM) | relative viability (AZ3146 + Trametinib; first compound 0.08 µM) | relative viability (AZ3146 + Trametinib; first compound 0.253 µM) | relative viability (AZ3146 + Trametinib; first compound 0.8 µM) | relative viability (AZ3146 + Trametinib; first compound 2.53 µM) | relative viability (AZ3146 + Trametinib; first compound 8 µM) | relative viability (AZ3146 + Pictilisib; first compound 0.08 µM) | relative viability (AZ3146 + Pictilisib; first compound 0.253 µM) | relative viability (AZ3146 + Pictilisib; first compound 0.8 µM) | relative viability (AZ3146 + Pictilisib; first compound 2.53 µM) | relative viability (AZ3146 + Pictilisib; first compound 8 µM) | relative viability (AZ3146 + Vorinostat; first compound 0.08 µM) | relative viability (AZ3146 + Vorinostat; first compound 0.253 µM) | relative viability (AZ3146 + Vorinostat; first compound 0.8 µM) | relative viability (AZ3146 + Vorinostat; first compound 2.53 µM) | relative viability (AZ3146 + Vorinostat; first compound 8 µM) | relative viability (GSK-J4 + Phenformin; first compound 5 µM) |
| --- | --- | --- | --- | --- | --- | --- | --- | --- | --- | --- | --- | --- | --- | --- | --- | --- | --- | --- | --- | --- |
| HCC-366 | 0.574 | 0.579 | 0.482 | 0.59 | 0.31 | 0.412 | 0.311 | 0.341 | 0.316 | 0.233 | 0.133 | 0.138 | 0.146 | 0.191 | 0.192 | 0.408 | 0.352 | 0.278 | 0.14 | – |
| HCC-827 | 0.366 | 0.383 | 0.355 | 0.398 | 0.63 | 0.498 | 0.481 | 0.554 | 0.477 | 0.965 | 0.971 | 0.987 | 1.2 | 0.928 | 0.774 | 0.916 | 0.641 | 0.844 | 0.892 | 0.426 |
| HOP-62 | 0.612 | 0.548 | 0.665 | 0.528 | 0.451 | 0.354 | 0.325 | 0.387 | 0.389 | 0.561 | 0.719 | 0.627 | 0.895 | 0.548 | 0.337 | 0.664 | 0.598 | 0.699 | 0.385 | 0.558 |
| IA-LM | – | – | – | – | – | – | – | – | – | 0.306 | 0.425 | 0.354 | 0.381 | 0.225 | 0.674 | 0.872 | 1.01 | 0.924 | 1.06 | – |
| LC-2-ad | 0.635 | 0.499 | 0.568 | 0.432 | 0.858 | 0.928 | 0.928 | 0.894 | 0.902 | 0.398 | 0.483 | 0.425 | 0.579 | 0.41 | 0.629 | 0.703 | 0.69 | 0.694 | 0.603 | 0.495 |
| LCLC-97TM1 | 0.369 | 0.327 | 0.339 | 0.264 | 0.268 | 0.2 | 0.157 | 0.184 | 0.223 | – | – | 0.18 | 0.227 | 0.181 | 0.356 | 0.761 | 0.631 | 0.635 | 0.653 | 0.397 |
| LCLC-103H | 0.32 | 0.296 | 0.331 | 0.33 | 0.619 | 0.663 | 0.721 | 0.666 | 0.653 | 0.548 | 0.672 | 0.557 | 0.492 | 0.555 | 0.51 | 0.726 | 0.78 | 0.844 | 0.711 | 0.224 |
| LK-2 | 0.707 | – | 0.23 | 0.253 | 0.591 | 0.684 | 0.956 | 0.914 | 0.747 | 0.49 | – | – | 0.668 | 0.668 | 0.159 | 0.243 | 0.326 | 0.388 | 0.389 | 0.416 |
| LOU-NH91 | 0.716 | 0.69 | 0.647 | 0.802 | 0.838 | 0.76 | 0.867 | 0.794 | 0.781 | 0.475 | 0.542 | 0.459 | 0.494 | 0.474 | 0.866 | 0.837 | 0.968 | 1 | 0.832 | 0.561 |
